The values below come from ChEMBL document CHEMBL1821652, “QSAR models for predicting enzymatic hydrolysis of new chemical entities in 'soft-drug' design” (Bioorg Med Chem, 2009).

What is called half-life is how long it takes for the measured level to halve.

A short description of this data set: Half life in human plasma. The class given is ADME, cell-free.

The molecule `Nc1ccc(S(=O)(=O)N(COC(=O)c2ccccc2)c2cncs2)cc1` gave a half-life of 0.12 min. The result for `CCCCC(=O)OCn1cnc2c1c(=O)n(C)c(=O)n2C` reads 0.19 min. The result for `CCOC(=O)CNC(=O)OCOC(=O)c1ccccc1` reads 0.24 min; that for `CCOC(=O)CN(C)C(=O)OCOC(=O)c1ccccc1`, 0.41 min; that for `CCOC(=O)CNC(=O)OCOC(=O)c1cccnc1`, 0.43 min. The figure for `CCCN(CCC)Cc1cccc(C(=O)OCCOCn2cnc3c(=O)[nH]c(N)nc32)c1` is 0.8 min; for `CCOC(=O)c1ccc(/N=N/N(C)C(=O)OCOC(=O)c2ccccc2OC(C)=O)cc1` it is 1 min; for `Nc1ccc(S(=O)(=O)N(COC(=O)c2ccccc2)c2ncccn2)cc1` it is 1.38 min. Turning to `CCOC(=O)CNC(=O)OCOC(=O)C(C)(C)Oc1ccc(Cl)cc1`, the half-life stood at 1.63 min.

Molecule `CCCCC(=O)OCN1C(=O)NC(c2ccccc2)(c2ccccc2)C1=O` displayed a half-life of 1.9 min. The result for `CS(=O)(=O)N(COC(=O)c1ccccc1)c1ccc([N+](=O)[O-])cc1Oc1ccccc1` reads 1.93 min; that for `CCCCN(CCCC)Cc1cccc(C(=O)OCCOCn2cnc3c(=O)[nH]c(N)nc32)c1`, 2.3 min; that for `CCOC(=O)CN(C)C(=O)OCOC(=O)[C@@H](C)c1ccc2cc(OC)ccc2c1`, 2.72 min. The result for `COC(=O)[C@@H]1CCCN1C(=O)OCOC(=O)c1ccccc1` reads 3.48 min; that for `CCOC(=O)CNC(=O)OCOC(=O)Cc1ccccc1Nc1c(Cl)cccc1Cl`, 4.17 min; that for `Nc1nc2c(ncn2COCCOC(=O)c2cccc(CN3CCOCC3)c2)c(=O)[nH]1`, 4.6 min. The figure for `CCOC(=O)CN(COC(=O)[C@@H]1N2C(=O)[C@@H](NC(=O)Cc3ccccc3)[C@H]2SC1(C)C)C(=O)c1ccccc1` is 5.1 min.

As for `O=C(OC[C@H]1O[C@@H](n2cc(F)c(=O)[nH]c2=O)C[C@@H]1O)[C@@H]1CCCN1`, the half-life was found to be 5.7 min.

For the molecule `Cc1noc(N(COC(=O)c2ccccc2)S(=O)(=O)c2ccc(N)cc2)c1C`, the half-life is 5.78 min. The half-life values of the last two molecules are within 1.5-fold of each other.

`O=C(OC[C@H]1O[C@@H](n2cc(F)c(=O)[nH]c2=O)C[C@@H]1OC(=O)[C@@H]1CCCN1)[C@@H]1CCCN1`: the half-life was 6 min. On to `C[C@H](NC(=O)[C@H](N)CCC(=O)OCc1ccc([N+](=O)[O-])cc1)C(=O)O`, for which the half-life was 6.8 min. This half-life and that of the molecule before are within 1.5-fold of each other. Turning to `CC(=O)OCOC(=O)N(C)/N=N/c1ccc(C#N)cc1`, the half-life amounted to 7 min.

Molecule `CN(C)Cc1cccc(C(=O)OCCOCn2cnc3c(=O)[nH]c(N)nc32)c1` returned a half-life of 7 min. The figure for `C[C@H](NC(=O)[C@H](N)CC(=O)OCc1ccc([N+](=O)[O-])cc1)C(=O)O` is 7.2 min. The figure for `CCN(CC)Cc1cccc(C(=O)OCCOCn2cnc3c(=O)[nH]c(N)nc32)c1` is 7.5 min; for `Nc1nc2c(ncn2COCCOC(=O)c2cccc(CN3CCCCC3)c2)c(=O)[nH]1` it is 8.5 min.

`CCN(CC)C(=O)COC(=O)[C@H]1O[C@@H](Oc2cc3oc(-c4ccc(O)cc4)cc(=O)c3c(O)c2O)[C@H](O)[C@@H](O)[C@@H]1O` registered a half-life of 10 min. The figure for `CCOC(=O)CN(COC(=O)[C@@H]1N2C(=O)[C@@H](NC(=O)c3c(-c4c(Cl)cccc4Cl)noc3C)[C@H]2SC1(C)C)C(=O)c1ccccc1` is 10.1 min; for `Cc1ncc([N+](=O)[O-])n1CCOC(=O)CCCCCCCCC(=O)OCCn1c([N+](=O)[O-])cnc1C` it is 10.2 min. Regarding `CCCCOC(=O)[C@H](Cc1ccccc1)NC(=O)CN.Cl`, the half-life turned out to be 11.5 min. This half-life and that of the molecule before are within 1.5-fold of each other. The figure for `CCOC(=O)c1ccc(/N=N/N(C)C(=O)OCOC(C)=O)cc1` is 12 min; for `CCOC(=O)CN(COC(=O)c1ccccc1)C(=O)c1ccccc1` it is 12 min; for `O=C(O[C@H]1C[C@H](n2cc(F)c(=O)[nH]c2=O)O[C@@H]1CO)[C@@H]1CCCN1` it is 13.8 min. In turn, `CC(=O)OCOC(=O)N(C)/N=N/c1ccc(C)cc1` had a half-life of 15 min.

The molecule `Cc1ncc([N+](=O)[O-])n1CCOC(=O)CCCCC(=O)OCCn1c([N+](=O)[O-])cnc1C` showed a half-life of 16.8 min. The figure for `CC(=O)OCOC(=O)N(C)/N=N/c1ccc(Br)cc1` is 17 min; for `CCCCC(=O)OC[C@H]1O[C@@H](n2cnc3c(NC4CCCC4)ncnc32)[C@H](O)[C@@H]1O` it is 18 min. On to `Cc1cn([C@H]2C=C[C@@H](COC(=O)CN3CCNCC3)O2)c(=O)[nH]c1=O`, for which the half-life was 20 min. The half-life values of the last two molecules are within 1.5-fold of each other. The figure for `CCOC(=O)CNC(=O)OCOC(=O)c1ccccc1Nc1cccc(C(F)(F)F)c1` is 21.8 min; for `CCOC(=O)CSCC(=O)[C@@]12OC(C)(C)O[C@@H]1C[C@H]1[C@@H]3C[C@H](F)C4=CC(=O)C=C[C@]4(C)[C@@]3(F)[C@@H](O)C[C@@]12C` it is 24 min; for `CC(C)C(=O)Oc1ccc2c3c1O[C@H]1C(=O)CC[C@@]4(O)[C@@H](C2)N(CC2CC2)CC[C@]314` it is 24.6 min. The result for `CCN(CC)Cc1ccc(C(=O)OCCOCn2cnc3c(=O)[nH]c(N)nc32)cc1` reads 17 min; that for `CCCCC/C=C\C/C=C\C/C=C\CCCCC(=O)OCn1cnc2c1c(=O)n(C)c(=O)n2C`, 27.3 min; that for `CCCCCCCC(=O)OC[C@H]1O[C@@H](n2cnc3c(NC4CCCC4)ncnc32)[C@H](O)[C@@H]1O`, 28 min. The molecule `NCCCC[C@H](N)C(=O)OC[C@H]1O[C@@H](n2cc(F)c(=O)[nH]c2=O)C[C@@H]1OC(=O)[C@@H](N)CCCCN` displayed a half-life of 29.5 min. This half-life and that of the molecule before are within 1.5-fold of each other. The figure for `Cc1cn([C@H]2C=C[C@@H](COC(=O)CN(C)C)O2)c(=O)[nH]c1=O` is 30 min; for `CCC(=O)Oc1c(-c2ccc(O)c(O)c2)oc2cc(O)cc(O)c2c1=O` it is 31.2 min. The figure for `CC(C)CC(=O)Oc1ccc2c3c1O[C@H]1C(=O)CC[C@@]4(O)[C@@H](C2)N(CC2CC2)CC[C@]314` is 32.4 min; for `CN(C)Cc1ccc(C(=O)OCCOCn2cnc3c(=O)[nH]c(N)nc32)cc1` it is 33 min; for `CCN(CC)CC(=O)OCCn1c([N+](=O)[O-])cnc1C.Cl` it is 33.6 min. The result for `CCOC(=O)c1ccc(/N=N/N(C)C(=O)OCOC(=O)c2ccccc2O)cc1` reads 34 min; that for `Cc1ncc([N+](=O)[O-])n1CCOC(=O)CCCC(=O)OCCn1c([N+](=O)[O-])cnc1C`, 36.6 min. In turn, `COc1ccc2cc([C@H](C)C(=O)OCCOCCO)ccc2c1` showed a half-life of 38.6 min. The result for `NCCCC[C@H](N)C(=O)OC[C@H]1O[C@@H](n2cc(F)c(=O)[nH]c2=O)C[C@@H]1O` reads 38.8 min; that for `CC(C)OC(=O)Oc1ccc2c3c1O[C@H]1C(=O)CC[C@@]4(O)[C@@H](C2)N(CC2CC2)CC[C@]314`, 39 min.

The molecule `O=C(OCN(C(=O)c1ccccc1)c1ccccc1)c1ccccc1` showed a half-life of 40 min. Take `Cc1cc(C)nc(N(COC(=O)c2ccccc2)S(=O)(=O)c2ccc(N)cc2)n1`: the half-life is 41.4 min. The half-life values of the last two molecules are within 1.5-fold of each other.

In the case of `CCCCCCCCOC(=O)[C@H](Cc1ccccc1)NC(=O)CN.Cl`, the half-life stood at 42.5 min.

As to `O=C(OC[C@H]1O[C@@H](n2cnc3c(NC4CCCC4)ncnc32)[C@H](O)[C@@H]1O)C1CCCCC1`, the half-life was 45 min.

As to `CCCN(CCC)S(=O)(=O)c1ccc(C(=O)OCN(CC(=O)OCC)C(=O)c2ccccc2)cc1`, the half-life was determined as 46 min.

In the case of `CCC1CCN(CC(=O)OCCn2c([N+](=O)[O-])cnc2C)CC1`, the half-life came out at 46.5 min.

The molecule `CCOC(=O)c1ccc(/N=N/N(C)C(=O)OCOC(=O)c2ccccc2)cc1` had a half-life of 47 min. The result for `NCCCC[C@H](N)C(=O)O[C@H]1C[C@H](n2cc(F)c(=O)[nH]c2=O)O[C@@H]1CO` reads 51 min.

Consider `N[C@@H](CC(=O)O)C(=O)O[C@H]1C[C@H](n2cc(F)c(=O)[nH]c2=O)O[C@@H]1CO`, for which the half-life was 53.9 min. This half-life and that of the molecule before are within 1.5-fold of each other. The figure for `CCCN(CCC)Cc1ccc(C(=O)OCCOCn2cnc3c(=O)[nH]c(N)nc32)cc1` is 9 min. Molecule `Cc1cn([C@H]2C=C[C@@H](COC(=O)CNNC(=O)c3ccncc3)O2)c(=O)[nH]c1=O` registered a half-life of 60 min.

For `Cc1cn([C@H]2C=C[C@@H](COC(=O)CNC(=O)c3ccncn3)O2)c(=O)[nH]c1=O`, the half-life is 60 min.

`Cc1cn(CCOC(=O)CC[C@H](N)C(=O)N(C)CC(=O)O)c(=O)[nH]c1=O`: the half-life was 61.3 min. The half-life values of the last two molecules are within 1.5-fold of each other. Turning to `CCCCCCCCCCOC(=O)[C@H](Cc1ccccc1)NC(=O)CN.Cl`, the half-life stood at 61.5 min. The figure for `CCCC(=O)Oc1c(-c2ccc(O)c(O)c2)oc2cc(O)cc(O)c2c1=O` is 63 min.

`COc1ccc2cc([C@H](C)C(=O)OCN(C)C(=O)c3ccccc3)ccc2c1`: the half-life was determined as 72 min. The figure for `CC(C)C[C@H]1NC(=O)[C@H](Cc2ccccc2)NC(=O)CNC(=O)[C@@H](C)NC(=O)[C@H](Cc2ccc(O)cc2)NC(=O)/C=C\c2ccccc2OC1=O` is 72 min. The result for `CN(CC(=O)O)C(=O)[C@@H](N)CCC(=O)OCCOCn1cnc2c(=O)[nH]c(N)nc21` reads 72.7 min; that for `CN(CC(=O)O)C(=O)[C@@H](N)CCC(=O)OCc1ccccc1`, 73.2 min; that for `CCCCCCCCCCCC(=O)Oc1c(-c2ccc(O)c(O)c2)oc2cc(O)cc(O)c2c1=O`, 73.2 min. The figure for `CCOC(=O)CN(COC(=O)[C@@H](C)c1ccc2cc(OC)ccc2c1)C(=O)c1ccccc1` is 78 min.

As to `O=C(OCc1ccccc1)[C@H]1O[C@@H](Oc2cc3oc(-c4ccc(O)cc4)cc(=O)c3c(O)c2O)[C@H](O)[C@@H](O)[C@@H]1O`, the half-life is 88 min. The half-life values of the last two molecules are within 1.5-fold of each other.

With `CCCCOC(=O)[C@@H](N)Cc1ccc(O)c(O)c1`, the half-life came to 96 min. For the molecule `C[C@H](NC(=O)[C@H](N)CCC(=O)OCCc1ccccc1)C(=O)O`, the half-life came out at 97 min. The figure for `CCCSc1ccc2c(c1)nc(NC(=O)OC)n2C(=O)OCC` is 8.32 min; for `CCCSc1ccc2nc(NC(=O)OC)n(C(=O)OCC)c2c1` it is 7.19 min. The result for `Nc1nc(O)c2ncn(COCCOC(=O)c3ccc(CN4CCOCC4)cc3)c2n1` reads 3.7 min; that for `CCCSc1ccc2c(c1)nc(NC(=O)OC)n2COC(=O)c1ccc(CN)cc1.Cl.Cl`, 55.8 min.

The molecule `N[C@@H](CC(=O)O)C(=O)OC[C@H]1O[C@@H](n2cc(F)c(=O)[nH]c2=O)C[C@@H]1O` returned a half-life of 38.6 min.
